# Measured values published in patent publication US7687535B2, “Substituted 3-sulfur indoles” (AstraZeneca AB, priority 2003, dated 2010).
# Target: T1, rhCRTh2 (Homo sapiens, UniProt Q9Y5Y4)
# T1 construct: expressed in transfected cells; host or cells: HEK cells (membrane preparation)
# T1 sequence (Q9Y5Y4 1-395): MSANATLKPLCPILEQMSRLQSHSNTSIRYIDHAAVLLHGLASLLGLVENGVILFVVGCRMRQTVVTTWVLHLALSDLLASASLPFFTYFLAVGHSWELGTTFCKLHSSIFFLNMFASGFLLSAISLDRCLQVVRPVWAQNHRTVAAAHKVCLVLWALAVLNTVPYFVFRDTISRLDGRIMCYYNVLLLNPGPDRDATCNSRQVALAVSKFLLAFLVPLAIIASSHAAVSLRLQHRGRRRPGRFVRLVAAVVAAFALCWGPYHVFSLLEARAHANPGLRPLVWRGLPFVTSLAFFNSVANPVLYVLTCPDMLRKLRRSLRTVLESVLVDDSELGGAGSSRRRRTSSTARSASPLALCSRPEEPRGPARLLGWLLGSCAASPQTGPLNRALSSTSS
# Test: Ligand Binding Assay ([3H]PGD2 SPA, HEK cell membranes)
# Conditions: [3H]PGD2 binding to membranes of HEK cells expressing rhCRTh2/Gα16, SPA beads, 2 hours at room temperature
# Procedure: [^3H]PGD2 was purchased from Perkin Elmer Life Sciences with a specific activity of 100-210 Ci/mmol. All other chemicals were of analytical grade.
# HEK cells expressing rhCRTh2/Gα16 were routinely maintained in DMEM containing 10% Foetal Bovine Serum (HyClone), 1 mg/ml geneticin, 2 mM L-glutamine and 1% non-essential amino acids. For the preparation of membranes, the adherent transfected HEK cells were grown to confluence in two layer tissue culture factories (Fisher, catalogue number TKT-170-070E). Maximal levels of receptor expression were induced by addition of […] sodium butyrate for the last 18 hours of culture. The adherent cells were washed once with phosphate buffered saline (PBS, 50 ml per cell factory) and detached by the addition of 50 ml per cell factory of ice-cold membrane homogenisation buffer [20 mM HEPES (pH 7.4), 0.1 mM dithiothreitol, 1 mM EDTA, 0.1 mM phenyl methyl sulphonyl fluoride and 100 μg/ml bacitracin]. […] The final pellet was re-suspended in 4 ml of membrane homogenisation buffer per cell factory used and the protein content determined. […]
# All assays were performed in Corning clear bottomed, white 96-well NBS plates (Fisher). […] (The optimum coating concentrations were determined for each batch of membranes) The beads were pelleted by centrifugation (800×g for 7 minutes at 4° C.), washed once with assay buffer (50 mM HEPES pH 7.4 containing 5 mM magnesium chloride) and finally re-suspended in assay buffer at a bead concentration of 10 mg/ml.
# Each assay contained 20 μl of 6.25 nM [^3H]PGD2, 20 μl membrane saturated SPA beads both in assay buffer and 10 μl of compound solution or 13,14-dihydro-15-keto prostaglandin D2 (DK-PGD2, for determination of non-specific binding, Cayman chemical company). […] The assay plate was incubated at room temperature for 2 hours and counted on a Wallac Microbeta liquid scintillation counter (1 minute per well).
row,IC50,SMILES
1,0.398 nM,"Cc1noc(C)c1-c1ccc2c(c1)c(Sc1ccc(S(C)(=O)=O)cc1)c(C)n2CC(=O)O [Example 34, 5-(3,5-Dimethyl-4-isoxazolyl)-2-methyl-3-[[4-(methylsulfonyl)phenyl]thio]-1H-indole-1-acetic acid]"
2,4.47 nM,"Cc1c(Sc2ccc(S(C)(=O)=O)cc2)c2c(-c3cccs3)cccc2n1CC(=O)O [Example 26, 2-Methyl-3-[[4-(methylsulfonyl)phenyl]thio]-4-(2-thiophenyl)-1H-indole-1-acetic acid]"
3,224 nM,"CCN(C(C)=O)c1cccc2c1c(Sc1ccc(Cl)cc1)c(C)n2CC(=O)O [Example 14, 4-(Acetylethylamino)-3-[(4-chlorophenyl)thio]-2-methyl-1H-indole-1-acetic acid]"

# Test system: not given
# Test: not given
# Conditions: not given
row,SMILES,melting point
1,"Cc1c(Sc2cccc(Cl)c2)c2cc(NS(C)(=O)=O)ccc2n1CC(=O)O [Example 6, 3-[(3-Chlorophenyl)thio]-2-methyl-5-[(methylsulfonyl)amino]-1H-indole-1-acetic acid]",224 °C
2,"Cc1c(Sc2ccccc2C(F)(F)F)c2cc(NS(C)(=O)=O)ccc2n1CC(=O)O [Example 10, 3-[(2-Trifluoromethylphenyl)thio]-2-methyl-5-[(methylsulfonyl)amino]-1H-indole-1-acetic acid]",207 °C
3,"Cc1c(Sc2cccc3cccnc23)c2cc(NS(C)(=O)=O)ccc2n1CC(=O)O [Example 11, 3-[(8-Quinolinyl)thio]-2-methyl-5-[(methylsulfonyl)amino]-1H-indole-1-acetic acid]",257 °C
4,Cc1c(Sc2ccc(Cl)cc2)c2c(NC(=O)C3CC3)cccc2n1CC(=O)O [Example 15],183 to 185 °C
5,"COc1cccc(Sc2c(C)n(CC(=O)O)c3ccc(NS(C)(=O)=O)cc23)c1 [Example 8, 3-[(3-Methoxyphenyl)thio]-2-methyl-5-[(methylsulfonyl)amino]-1H-indole-1-acetic acid]",292 °C
6,"Cc1c(Sc2ccc(Cl)cc2)c2cc(NS(C)(=O)=O)ccc2n1CC(=O)O [Example 7, 3-[(4-Chlorophenyl)thio]-2-methyl-5-[(methylsulfonyl)amino]-1H-indole-1-acetic acid]",214 °C
7,"Cc1c(Sc2ccccc2Cl)c2cc(NS(C)(=O)=O)ccc2n1CC(=O)O [Example 5, 3-[(2-Chlorophenyl)thio]-2-methyl-5-[(methylsulfonyl)amino]-1H-indole-1-acetic acid]",212 °C
8,"COc1ccc(Sc2c(C)n(CC(=O)O)c3ccc(NS(C)(=O)=O)cc23)cc1 [Example 9, 3-[(4-Methoxyphenyl)thio]-2-methyl-5-[(methylsulfonyl)amino]-1H-indole-1-acetic acid]",215 °C
9,"Cc1c(Sc2ccccc2C(C)C)c2cc(NS(C)(=O)=O)ccc2n1CC(=O)O [Example 12, 3-[(2-(Methylethyl)phenyl)thio]-2-methyl-5-[(methylsulfonyl)amino]-1H-indole-1-acetic acid]",160 °C

# Further lines, results first:
row,melting point,SMILES
1,233 to 236 °C,"Cc1c(Sc2cccc(S(C)(=O)=O)c2)c2cc(NS(C)(=O)=O)ccc2n1CC(=O)O [Example 30, 2-Methyl-5-[(methylsulfonyl)amino]-3-[[3-(methylsulfonyl)phenyl]thio]-1H-indole-1-acetic acid]"
2,213 to 215 °C,"Cc1c(Sc2ccc(Cl)cc2)c2c(NC(=O)c3ccccc3)cccc2n1CC(=O)O [Example 16, 4-(Benzoylamino)-3-[(4-chlorophenyl)thio]-2-methyl-1H-indole-1-acetic acid]"
3,227 to 230 °C,"Cc1c(Sc2ccccc2S(C)(=O)=O)c2cc(NS(C)(=O)=O)ccc2n1CC(=O)O [Example 31, 2-Methyl-5-[(methylsulfonyl)amino]-3-[[2-(methylsulfonyl)phenyl]thio]-1H-indole-1-acetic acid]"
4,> 290 °C,Cc1c(Sc2ccc(S(C)(=O)=O)cc2)c2cc(-c3cncnc3)ccc2n1CC(=O)O [Example 32]
